From patent publication US20120204273A1, “COMPOSITIONS RELATING TO A PHOSPHOPROTEIN AND METHODS OF USE” (SANFORD-BURNHAM MEDICAL RESEARCH INSTITUTE, priority 2010, published 2012) come the findings set out here.

In the experiment the test system is 3T3-L1 adipocytes. The experiment can be described thus: GSV-PM fusion in live adipocytes (IRAP-pHluorin, TIRF microscopy). The class given is cell-based, mouse. The text has this: FIG. 3, panels A-C, show knockdown of CDP138 in live 3T3-L1 adipocytes inhibits insulin-stimulated membrane fusion between GLUT4 storage vesicles (GSV) and the PM, but not GLUT4-EGFP trafficking to the TIRF zone. (A): Schematic illustration of the molecular probes and TIRF microcopy-based live cell assays for GLUT4 trafficking and GSV-PM fusion. (B) and (C): The effect of CDP138 knockdown on insulin-stimulated IRAP-pHluorin insertion into the PM (B), and accumulation of GLUT4-EGFP in the TIRF zone (C). Adipocytes (day 4) were transfected by electroporation with plasmid DNA encoding IRAP-pHluorin or GLUT4-EGFP, together with either the scrambled siRNA or smartPool siRNA against mouse 5730419I09Rik. Cells were reseeded on glass-bottomed dishes for 72 hrs, serum starved for 2 hr then stimulated with 100 nM insulin for 30 min. Analyses were performed in a cell warmer adapted for a Nikon TiE with fully motorized combined dual laser (488 and 561 nm). Images were acquired every 3 min immediately after addition of insulin and analyzed as described in the Supplementary Experimental Procedures. Perfect focus system and multiple points capture program (NIS Element) were used to acquire images from multiple positively transfected cells at each time point. […]
Total Internal Reflection Fluorescence (TIRF) Microscopy: Nikon (Melville, N.Y.) TI-TIRF-E, which was based on the objective lens method, was used to perform all the TIRF experiments. […] Positively transfected adipocytes were identified, and the insulin-stimulated IRAP vesicle-PM fusion events or GLUT4-EGFP trafficking to the TIRF zone were recorded every 3 min for a 30 min period using Nikon Eclipse-Ti TIRF microscope. […]
Image Analysis and Quantification: TIRF and wide field fluorescence microscopy were performed using a Nikon inverted microscope (Melville, N.Y.) with a cooled charge-coupled device camera. […]

In the case of insulin, the “stimulation of GSV fusion with the PM in the TIRF zone” value is on record as “significantly stimulates”.
